Assays:
DA neurons = assay: LPS-induced dopaminergic neurotoxicity in microglia-depleted neuron-glia cultures; assay type: cell-based; details: microglia depleted by LME to <1%, LPS 7 days
Procedure: To evaluate the influence of various kinds of glia contribute to effect of MMT on LPS-induced dopaminergic neurotoxicity, microglia-depleted Neuron-/glia Cultures were performed.

microglia = assay: Intracellular reactive oxygen species assay (DCFH oxidation) after LPS; assay type: cell-based; details: 2 h after LPS
Procedure: The production of intracellular reactive oxygen species (ROS) was measured by DCFH oxidation. The DCFH-DA reagent passively enters cell where it is de-acetylated by esterase to nonfluorescent DCFH. Inside the cell, DCFH reacts with ROS to form DCF, the fluorescent product. For this assay, 10 mM DCFH-DA was dissolved in methanol and was diluted 500-fold in HBSS to give a 20 μM concentration of DCFH-DA. Enriched-microglia cultures seeded (5×10^4) in 96-well plates were then exposed to DCFH-DA for 1 h, followed by treatment with HBSS containing several concentrations of LPS or substance P for 2 h. After incubation, the fluorescence was read at the 485 nm excitation and 530 nm emission on a fluorescence plate reader. […] To calculate the amount of intracellular ROS produced, the mean control treatment was subtracted from the mean treatment group.
Neuron-glia cultures were pretreated for 30 min with MMT (3 μM) or vehicle before LPS stimulation. […] Production of superoxide (30 min after LPS) and iROS (2 h after LPS) was decreased by MMT treatment (FIGS. 6A and 6B). […] The production of PGE2 in cultures pretreated with 3 and 10 μM MMT decreased by 23% and 27% respectively (FIG. 6E).

[1] = test system: rewarding effect of morphine; assay: Conditioned place preference (CPP) test in chronic morphine-treated rats; assay type: in vivo, SD rats
Procedure: The SD rats were divided into four groups as follow: • 1. Control group: (inject saline only) • 2. Morphine only group: (M, 5 mg/kg) • 3. Pretreatment memantine (MEM, 0.2 mg/kg) with morphine group • (MEM was administrated 30 min before each M injection for 6 days) • 4. Post-treatment MEM group • (MEM was administrated after chronic M injection for 6 days)
Drug-induced reward effect was measured by the conditioned place preference (CPP) test. The CPP test apparatus was divided into two compartments. A two compartment box (60×29.2×29.2 cm) with a transparent Plexiglas front was separated by a gray cylinder platform (10.3 cm in diameter and 12 cm in height) as the Dr. Tseng described previously was used (Terashvili et al., 2008). One compartment was white with a textured floor and the other was black with a smooth floor. […] We determined the place preference before conditioning and on the day after conditioning (day 0, day 7, day 11 and day 13) by placing the rat into the CPP test apparatus with the gray cylinder doors open for 15 min. The time that the rats stayed in each compartment was recorded. The measurement of the drug reward effect was determined by the increase in the time spent in the compartment previously paired with drug injection relative to that spent in the saline-paired compartment.

gp 91 = molecular target: T1, gp 91 (Homo sapiens, UniProt P04839); assay: Competition of [3H]-labeled naloxine binding; details: preliminary data
T1 sequence (P04839 1-570): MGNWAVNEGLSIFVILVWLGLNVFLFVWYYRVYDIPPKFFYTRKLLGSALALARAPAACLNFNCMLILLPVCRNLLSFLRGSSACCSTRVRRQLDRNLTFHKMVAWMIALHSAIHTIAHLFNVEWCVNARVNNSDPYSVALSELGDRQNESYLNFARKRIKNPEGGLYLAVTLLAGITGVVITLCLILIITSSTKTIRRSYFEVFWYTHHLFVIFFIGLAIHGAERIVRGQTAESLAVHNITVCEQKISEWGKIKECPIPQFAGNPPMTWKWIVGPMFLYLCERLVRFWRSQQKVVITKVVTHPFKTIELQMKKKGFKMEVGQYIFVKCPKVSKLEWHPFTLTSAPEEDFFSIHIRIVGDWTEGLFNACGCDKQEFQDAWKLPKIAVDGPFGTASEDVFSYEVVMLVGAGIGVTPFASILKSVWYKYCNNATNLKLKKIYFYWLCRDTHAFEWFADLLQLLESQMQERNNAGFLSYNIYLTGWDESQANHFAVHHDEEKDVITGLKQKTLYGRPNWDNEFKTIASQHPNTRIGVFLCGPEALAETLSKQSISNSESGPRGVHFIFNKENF
T1 sequence (P13498 1-195 partner): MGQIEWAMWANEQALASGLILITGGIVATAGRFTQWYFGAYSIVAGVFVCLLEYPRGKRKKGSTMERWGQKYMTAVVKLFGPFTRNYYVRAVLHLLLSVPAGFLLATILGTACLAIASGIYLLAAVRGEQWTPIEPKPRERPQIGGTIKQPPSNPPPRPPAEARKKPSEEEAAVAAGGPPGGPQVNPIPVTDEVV
Excerpt: Results from two sets of experiments support this conclusion. […] Thus, the failure for MMT to protect LPS-induced DA neurons toxicity in NADPH oxidase-deficient neuron/glia cultures implies a critical role of this enzyme in mediating the neuroprotective effect of MMT. The present invention determines the binding site of MMT in microglia.

[2] = Glutamate and aspartate concentrations in supernatants of primary neuron-glia cultures; assay type: cell-based; details: vehicle, 10 μM MMT, LPS 5 ng/ml, MMT plus LPS
Procedure: Primary neuron-glia cultures seeded in 24-well plates at a density of 5×10^5 cells/well for 7 days. Then, the cultures were treated with vehicle, 10 μM MMT, LPS 5 ng/ml, and MMT 10 μM and LPS 5 ng/ml, and supernatants derived from the primary neuron-glia cultures at indicated time points.
To determine the possibility that NMDA receptors might play a role in our mixed neuron/glia cultures in MMT-elicited neuroprotection, this invention determine the concentrations of excitatory amino acid, glutamate and aspartate in the supernatant of cultures after LPS treatment. Several authors reported the release of excitatory amino acid release from microglia by higher concentration of LPS (100 ng/ml). However, the concentration of glutamate released was limited to 10-20 μM, which may not be in sufficient concentrations to produce significant neuronal death (Obrenovitch et al. Excitotoxicity in neurological disorders--the glutamate paradox. Int J Dev Neurosci. 2000; 18:281-7.). In mixed neuron/glia cultures of this invention, with lower concentration of LPS (5 ng/ml) which was toxic to DA neurons, this invention could not detect any increases in both glutamate and aspartate (FIG. 13).

CC12CC3CC(C)(C1)CC(N)(C3)C2.Cl [MMT, 1-amino-3,5-dimethyladamantane hydrochloride]
protective effect against LPS-induced dopaminergic neurotoxicity (DA neurons): not found in depletion of microglia
production of iROS (microglia): decreased
time of staying in the compartment paired with morphine (CPP) ([1]; post-treatment, memantine 0.2 mg/kg s.c. once daily for 6 days after chronic morphine): reduced time of staying in the compartment paired with morphine
time of staying in the compartment paired with morphine (CPP) ([1]; pretreatment, memantine 0.2 mg/kg s.c. 30 min before each morphine 5 mg/kg i.p., 6 days): reduced time of staying in the compartment paired with morphine
competing the binding of [3H]-labeled naloxine (gp 91): effective in competing the binding
aspartate concentration in supernatant [2]: not obviously different
glutamate concentration in supernatant [2]: not obviously different

— patent US20150080475A1, “Memantine Protects Inflammation-Related Degeneration of Dopamine Neurons Through Inhibition of Over-Activated Microglia and Release of Neurotrophic Factors From Astroglia” (priority 2009, published 2015)
